# Reference: US20240099989A1, “AGENT FOR PREVENTING OR IMPROVING PERIPHERAL NEUROPATHY” (KINKI UNIVERSITY, priority 2021, published 2024)
# Tested on: Diabetic Peripheral Neuropathy in a Mouse Induced by Streptozotocin
# Assay: Von Frey test (0.16 g filament), diabetic peripheral neuropathy induced by streptozotocin
# Assay type: in vivo, C57BL/6J mice
# Conditions: time course
# Protocol: On Day 8 of acclimation, the mice in the group receiving streptozotocin and the group receiving streptozotocin+1 mg/kg xylitol were administered with streptozotocin at a dose of 200 mg/kg. A massive dose of streptozotocin destroys pancreatic cells in the mice. As a result, insulin is no longer secreted, and thus, diabetes can be developed in the mice. This day was designated as the first day of the administration (Day 0). Note that streptozotocin was administered only on the first day of administration. […]
# Six to seven-week-old male C57BL/6J mice were used for the tests as with Example 7. All the mice were acclimated for seven days after arrival. Then, the mice were grouped into the following four groups: a control group, a group receiving streptozotocin, a group receiving 1 mg/kg xylitol, and a group receiving streptozotocin+1 mg/kg xylitol. Each group consisted of nine mice.
# The mice in the group receiving 1 mg/kg xylitol were orally administered with xylitol at a dose of 1 mg/kg daily from Day 0. The mice in the group receiving streptozotocin+1 mg/kg xylitol were orally administered with xylitol at a dose of 1 mg/kg daily from Day 21 of administration.
# The mice in the four groups described in (1) of the present example (Example 8) were placed in a cage, and the avoidance response frequency (score) was measured by pressing a filament with a bending force of 0.16 g against the back of the hind paw. […]
# On Day 8 of acclimation, the mice in the group receiving streptozotocin and the group receiving streptozotocin+5 mg/kg D-threitol were administered with streptozotocin at a dose of 200 mg/kg. A massive dose of streptozotocin destroys pancreatic cells in the mice. As a result, insulin is no longer secreted, and thus, diabetes can be developed in the mice. This day was designated as the first day of the administration (Day 0). Note that streptozotocin was administered only on the first day of administration.
# The mice in the group receiving 5 mg/kg D-threitol and the group receiving streptozotocin+5 mg/kg D-threitol were orally administered with D-threitol at a dose of 5 mg/kg daily from Day 0. […]
# The mice in the group receiving 5 mg/kg D-threitol were orally administered with D-threitol at a dose of 5 mg/kg daily from Day 0. […]
# The mice in the four groups described in (1) of the present example (Example 10) were placed in a cage, and the avoidance response frequency (score) was measured by pressing a filament with a bending force of 0.16 g against the back of the hind paw. […]
# The mice in the four groups described in (1) of the present example (Example 11) were placed in a cage, and the avoidance response frequency (score) was measured by pressing a filament with a bending force of 0.16 g against the back of the hind paw. […]
# [1] = streptozotocin 200 mg/kg + 5 mg/kg orally daily from Day 21 (therapy)
Compound,avoidance response score [1],avoidance response score (streptozotocin 200 mg/kg + 1 mg/kg orally daily from Day 21 (therapy))
OC[C@H](O)[C@H](O)[C@H](O)[C@@H](O)CO [L-talitol],reduced from Day 21 onwards,
OC[C@@H](O)[C@H](O)CO [D-threitol],reduced from Day 24 onwards,
OC[C@@H](O)[C@H](O)[C@@H](O)CO [xylitol],,reduced from Day 21 onwards
